# Patent US20100279941A1, “CD36 MODULATION AND USES THEREOF” (priority 2009, published 2010)
# Tests used:
# [1] = test system: CD36^+/+ and CD36^−/− mice; experiment: Myocardial metabolic rate of glucose by μPET with [18F]-FDG; assay type: in vivo; settings: 6 hours reperfusion; in words
# Experimental: Experimental model of IHD: Transient left coronary artery ligation in vivo. Mice were subjected to a transient LCAL surgery as described before, with minor modifications [Tarnayski et al., 2004]. Mice were injected i.p. with buprenorphine (0.05 mg/kg) and placed in an induction chamber with inhalation anesthesia comprised of 3% isoflurane mixed with 100% oxygen. Mice were intubated with a blunt ended 20-gauge catheter into the trachea via the mouth and mechanically ventilated at a tidal volume of 7 ml/kg at 130 respirations/min with a MiniVent™ mouse ventilator (model 845, Harvard Apparatus, Saint-Laurent, QC, Canada). Anesthesia was maintained with 1.5-2% isoflurane and the animals were kept warm using electrical heating pads during the surgical procedure. The chest was opened by a horizontal incision through the skin and muscle layers at the third intercostal space exposing the left side of the heart. […] Visual blanching distal to the coronary occlusion confirmed myocardial ischaemia. Lidocaine (6 mg/kg) was administered i.p. just following occlusion and prior to reperfusion. […]
# Imaging Data Analysis. For [^11C]-acetate images, dynamic series of 25 frames each were sorted out whereas 27 frames were used for ^18FDG and ^18FTHA imaging, and were reconstructed and analyzed using multicompartmental analysis [Menard et al., 2009] or the Patlak method for FTHA [Patlak and Blasberg, 1985]. […]
# AMPK = experiment: Western blot of left ventricle: phosphorylated AMPK to total AMPK; assay type: in vivo, mice
# Experimental: Experimental model of IHD: Transient left coronary artery ligation in vivo. Mice were subjected to a transient LCAL surgery as described before, with minor modifications [Tarnayski et al., 2004]. Mice were injected i.p. with buprenorphine (0.05 mg/kg) and placed in an induction chamber with inhalation anesthesia comprised of 3% isoflurane mixed with 100% oxygen. Mice were intubated with a blunt ended 20-gauge catheter into the trachea via the mouth and mechanically ventilated at a tidal volume of 7 ml/kg at 130 respirations/min with a MiniVent™ mouse ventilator (model 845, Harvard Apparatus, Saint-Laurent, QC, Canada). Anesthesia was maintained with 1.5-2% isoflurane and the animals were kept warm using electrical heating pads during the surgical procedure. The chest was opened by a horizontal incision through the skin and muscle layers at the third intercostal space exposing the left side of the heart. […] Visual blanching distal to the coronary occlusion confirmed myocardial ischaemia. Lidocaine (6 mg/kg) was administered i.p. just following occlusion and prior to reperfusion. After 30 minutes, the PE10 tubing was removed allowing reperfusion. The lungs were reinflated and the chest wound closed layer by layer before extubation. […] Hearts were immediately frozen at −80° C. unless otherwise stated.
# Western blot analysis. Total ventricular protein lysates were prepared as described previously [Bodart et al., 2002]. Left ventricles were homogenized in PBS containing a protease inhibitor cocktail (Roche Applied Science, Indianapolis, Ind., USA) and 1 mM sodium orthovanadate. Homogenates were incubated for 10 min on ice with an equal volume of lysis buffer (NaCl 300 mM, Tris-HCl 100 mM, 2% Triton X-100, 0.2% SDS, 50 mM NaF, 4 mM EDTA, 1 mM sodium orthovanadate and protein inhibitors, pH=7.5), and centrifuged at 14,000 g for 30 minutes at 4° C. The protein concentration of the su pernatant was determined by the bicinchoninic acid (BCA) protein assay (Pierce Biotechnology, Rockford, Ill., USA). Equal amounts (50 or 100 μg) of protein extracts were separated on 10% SDS-polyacrylamide gels and transferred electrophoretically to polyvinylidene difluoride (PVDF) membranes (Bio-Rad Laboratories, Hercules, Calif., USA) for immunoblotting. […] Antibody binding was detected by enhanced chemiluminescence using an alpha Imager™ (Alpha Innotech Corporation, San Leandro, Calif., USA). Quantification of the digital images obtained was performed using ImageQuant™ 5.2 software (Molecular Dynamics, Sunnyvale, Calif., USA).
substance,measurement,setting,value
HAIC-2MeDTrp-DLys-Trp-DPhe-Lys-NH2 [EP 80317],myocardial metabolic rate of glucose (MMRG),[1],not modulated
same,increase of P-AMPK to total AMPK band density ratio,"AMPK; 6 hours reperfusion, CD36^+/+ mice, p<0.01",121%
same,effect on P-AMPK/AMPK ratio,"AMPK; 6 hours reperfusion, CD36^−/− mice, in words",no effect
same,P-AMPK/AMPK density ratio,"AMPK; 48 hours reperfusion, CD36^+/+ mice, in words",tended to decrease
same,effect on AMPK phosphoprotein signal,"AMPK; 48 hours reperfusion, genotype not printed in the sentence (FIG. 7D), in words",no significant effect
